Reference: patent US6979686B1, “Substituted pyrazoles as p38 kinase inhibitors” (Pharmacia Corporation, priority 2001, dated 2005)
pIC50: −log10 of the molar value. Like-named read-outs stand apart in the source and are kept apart here. Values belong to the compound of their own block, whether it stands above or below them.

Legend:
[1] = tested on: TNF-α, U937 human histiocytic lymphoma cell line; assay: LPS stimulation of TNF production by U937 cells; format: cell-based; conditions: for U937 Cell IC50, uM or % inhib @ conc. (uM): % inhib: @ 10.0 uM; for inhibition at 1 µM: U-937, @ 1.0 uM, read-out: U937 Cell % inhib @ conc.
Experimental: Maintenance and Differentiation of the U937 Human Histiocytic Lymphoma Cell Line:
Fifty million cells in 100 ml media were induced to terminal monocytic differentiation by 24 hour incubation with 20 ng/ml phorbol 12-myristate 13-acetate (Sigma). The cells were washed by centrifugation (200×g for 5 min) and resuspended in 100 ml fresh medium. After 24-48 hours, the cells were harvested, centrifuged, and resuspended in culture medium at 2 million cells/ml.
LPS Stimulation of TNF Production by U937 Cells:
Compounds were prepared as 10 mM stock solutions in DMSO and diluted in culture medium to yield a final DMSO concentration of 0.1% in the cell assay. LPS (E coli, 100 ng/ml final concentration) was then added at a volume of 0.02 ml. After 4 hour incubation at 37° C., the amount of TNF-α released in the culture medium was quantitated by ELISA. Inhibitory potency is expressed as IC50 (μM).
In vitro whole cell assay for measuring the ability of the compounds to inhibit TNF production in human U937 cells stimulated with LPS are shown in the column identified as: • “U937 Cell IC50, uM or % inhib @ conc., (uM)”

[2] = biological target: T1, human p38 kinase alpha (Homo sapiens, UniProt Q16539); assay: p38 kinase in vitro assay, phosphorylation of biotinylated PHAS-I with 32P-ATP; format: biochemical
T1 construct: GST (N, cleaved yes); made in house; host or cells: E. coli DH10B

[3] = TNF production, U937 cells stimulated with LPS
[4] = @ 1.0 uM, TNF production, U937 cells stimulated with LPS
[5] = Homo sapiens, TNF production, LPS-stimulated U937 cells
[6] = in vitro P38-alpha kinase, read-out: P38 alpha kinase IC50
[7] = in vitro P38-alpha kinase inhibition, read-out: P38 alpha kinase IC50
[8] = Homo sapiens, U-937, TNF production, human U937 cells stimulated with LPS, read-out: U937 Cell IC50

T1 sequence (Q16539 whole entry): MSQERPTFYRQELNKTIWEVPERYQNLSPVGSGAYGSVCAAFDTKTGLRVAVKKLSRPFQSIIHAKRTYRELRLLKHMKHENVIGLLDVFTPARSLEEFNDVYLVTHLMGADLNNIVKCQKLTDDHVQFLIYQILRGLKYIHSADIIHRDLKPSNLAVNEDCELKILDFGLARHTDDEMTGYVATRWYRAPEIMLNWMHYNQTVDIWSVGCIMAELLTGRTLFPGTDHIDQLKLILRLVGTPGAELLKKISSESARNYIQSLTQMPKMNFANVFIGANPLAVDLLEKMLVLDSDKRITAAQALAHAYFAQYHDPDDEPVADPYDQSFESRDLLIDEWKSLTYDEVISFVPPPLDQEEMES

- P38 alpha kinase % inhib @ conc. (uM) ([2]; @ 1.0 uM): 58.0% @
SMILES: Cc1ccc(S(=O)(=O)NCCc2[nH]nc(-c3ccc(F)cc3)c2-c2ccncc2)cc1 [Example B-1027]
- U937 Cell % inhib @ conc. (uM) [1, 4]: 18.0% @

- pIC50 [2, 6]: 5.68
SMILES: N#Cc1ccc(S(=O)(=O)N2CCC(c3[nH]nc(-c4ccc(F)cc4)c3-c3ccncc3)CC2)cc1 [Example B-1475]
- inhibition at 1 µM [1, 5]: 24%

- P38 alpha kinase % inhib @ conc. ([2]; @ 1.0 uM): 47.0% @
SMILES: O=[N+]([O-])c1ccc(S(=O)(=O)NCc2[nH]nc(-c3ccc(F)cc3)c2-c2ccncc2)cc1 [Example B-0115]
- U937 Cell % inhib @ conc. [1, 4]: 2.0% @

- U937 Cell IC50, uM or % inhib @ conc. (uM): % inhib [1, 3]: 28.0% @
- P38 alpha kinase IC50, uM or % inhib @ conc. (uM): % inhib ([2]; @ 10.0 uM): 90.0% @
SMILES: Cc1c(-c2ccncc2)c(-c2ccc(F)cc2)nn1CC(=O)Nc1ccc(S(=O)(=O)C(F)F)cc1 [Example B-2446]

- pIC50 ([1]; Homo sapiens, U-937, TNF production in human U937 cells stimulated with LPS, read-out: U937 Cell IC50): 6.23
- pIC50 [2, 7]: 6.64
SMILES: CC(NS(=O)(=O)C=Cc1ccccc1)c1[nH]nc(-c2ccc(F)cc2)c1-c1ccncc1 (stereo not shown) [Example B-0565]

- pIC50 [2, 6]: 6.06
SMILES: O=S(=O)(c1ccc(-c2ccon2)s1)N1CCC(c2[nH]nc(-c3ccc(F)cc3)c2-c2ccncc2)CC1 [Example B-1440]
- inhibition at 1 µM [1, 5]: 3%

- pIC50 ([1]; TNF production, human U937 cells stimulated with LPS, read-out: U937 Cell IC50): 5.44
- P38 alpha kinase % inhib @ conc. ([2]; @ 1.0 uM): 42.0% @
SMILES: O=S(=O)(NCc1[nH]nc(-c2ccc(F)cc2)c1-c1ccncc1)c1ccc(OC(F)F)cc1 [Example B-0143]

- pIC50 [2, 6]: 6.85
SMILES: O=S(=O)(NCCCc1[nH]nc(-c2ccc(F)cc2)c1-c1ccncc1)c1cccc(Cl)c1Cl [Example B-1250]
- inhibition at 1 µM [1, 5]: 18%

- pIC50 [2, 7]: 5.00
SMILES: CC(NC(=O)c1cccc(C(F)(F)F)c1F)c1[nH]nc(-c2ccc(F)cc2)c1-c1ccncc1 (stereo not shown) [Example B-0687]
- U937 Cell % inhib @ conc. (uM) ([1]; @ 1.0 uM, TNF production in human U937 cells stimulated with LPS): 15.0% @

- pIC50 [1, 8]: 5.86
- pIC50 [2, 6]: 6.24
SMILES: O=C(c1ccc(Br)cc1)N1CCC(c2[nH]nc(-c3ccc(F)cc3)c2-c2ccncc2)CC1 [Example B-1388]

The remaining lines, values behind:

SMILES: CCN(CC)CCN(Cc1ccc(Cl)cc1)C(=O)Cn1nc(-c2ccc(F)cc2)c(-c2ccncc2)c1C [Example B-2398]
- U937 Cell IC50, uM or % inhib @ conc. (uM): % inhib [1, 3]: 10.0% @
- P38 alpha kinase IC50, uM or % inhib @ conc. (uM): % inhib ([2]; @ 100.0 uM): 55% @

SMILES: Cc1[nH]nc(-c2ccc(C(F)(F)F)cc2)c1-c1ccncc1 [Example A-48]
- pIC50 ([1]; Table 5, LPS-stimulated U937 cells, TNF-α, read-out: U937 Cell Assay IC50): 6.28
- pIC50 ([2]; activated human p38 kinase alpha, PHAS-I substrate, 50 μM unlabeled ATP, read-out: p38 kinase IC50): 5.74

SMILES: COc1ccc(C2OCCN2C(=O)Cn2nc(-c3ccc(F)cc3)c(-c3ccncc3)c2C)cc1OC (stereo not shown) [Example B-2399]
- U937 Cell IC50, uM or % inhib @ conc. (uM): % inhib [1, 3]: 18.0% @
- P38 alpha kinase IC50, uM or % inhib @ conc. (uM): % inhib ([2]; @ 10.0 uM): 69.0% @

SMILES: O=C(NC(Cc1ccccc1)c1[nH]nc(-c2ccc(F)cc2)c1-c1ccncc1)c1ccccc1C(F)(F)F (stereo not shown) [Example B-0844]
- inhibition at 1 µM ([1]; Homo sapiens, TNF production, U937 cells stimulated with LPS): 25%
- pIC50 [2, 7]: 6.40

SMILES: Cc1c(-c2ccncc2)c(-c2ccc(F)cc2)nn1CC(=O)N(C)CCn1ccnc1 [Example B-2393]
- IC50 ([1]; TNF production, U937 cells stimulated with LPS, read-out: U937 Cell IC50, uM or % inhib @ conc. (uM): IC50): > 10 µM
- P38 alpha kinase IC50, uM or % inhib @ conc. (uM): % inhib ([2]; @ 10.0 uM): 43.0% @

SMILES: O=C(NCCCc1[nH]nc(-c2ccc(F)cc2)c1-c1ccncc1)NCCCN1CCCC1=O [Example B-1319]
- pIC50 [1, 8]: < 6.00
- pIC50 [2, 6]: 6.62

SMILES: COc1ccc(CC(=O)NC(Cc2ccccc2)c2[nH]nc(-c3ccc(F)cc3)c2-c2ccncc2)cc1OC (stereo not shown) [Example B-0815]
- pIC50 [1, 8]: < 6.00
- pIC50 [2, 7]: 5.68

SMILES: Cc1c(-c2ccncc2)c(-c2ccc(F)cc2)nn1CC(=O)N1CCCCC1CC1CCCN1C (mixture of isomers) [Example B-2388]
- U937 Cell IC50, uM or % inhib @ conc. (uM): % inhib [1, 3]: 24.0% @
- P38 alpha kinase IC50, uM or % inhib @ conc. (uM): % inhib ([2]; @ 10.0 uM): 42.0% @

SMILES: Cc1c(-c2ccncc2)c(-c2ccc(F)cc2)nn1CC(=O)Nc1ccccc1Sc1ccc([N+](=O)[O-])cn1 [Example B-2457]
- U937 Cell IC50, uM or % inhib @ conc. (uM): % inhib [1, 3]: 18.0% @
- P38 alpha kinase IC50, uM or % inhib @ conc. (uM): % inhib ([2]; @ 10.0 uM): 90.0% @

SMILES: Cc1c(-c2ccncc2)c(-c2ccc(F)cc2)nn1CC(=O)Nc1ccc(CCC(=O)c2cccnc2)cc1 [Example B-2445]
- U937 Cell IC50, uM or % inhib @ conc. (uM): % inhib [1, 3]: 15.0% @
- P38 alpha kinase IC50, uM or % inhib @ conc. (uM): % inhib ([2]; @ 10.0 uM): 94.0% @
